According to ChEMBL document CHEMBL4385621, “Synthesis and in vitro cytotoxicity evaluation of β-carboline-combretastatin carboxamides as apoptosis inducing agents: DNA intercalation and topoisomerase-II inhibition” (Bioorg Med Chem, 2019):

How the values were obtained:
Type in all cases: functional, cell-based
[1] = tested on: DU-145; experiment: Antiproliferative activity against human DU145 cells assessed as reduction in cell viability after 48 hrs by SRB assay; conditions: DU-145, 48 h
[2] = tested on: A549; experiment: Antiproliferative activity against human A549 cells assessed as reduction in cell viability after 48 hrs by SRB assay; conditions: A549, 48 h
[3] = tested on: HeLa; experiment: Antiproliferative activity against human HeLa cells assessed as reduction in cell viability after 48 hrs by SRB assay

Structure (SMILES)	IC50 [1] [µM]	IC50 [2] [µM]	IC50 [3] [µM]
COc1cc(/C(=C\c2ccc(C)cc2)C(=O)NCc2cc3c([nH]c4ccccc43)c(-c3cccc(F)c3)n2)cc(OC)c1OC	1.81	1.31	14
COc1cc(/C(=C\c2cccc(F)c2)C(=O)NCc2cc3c([nH]c4ccccc43)c(-c3cc(OC)c(OC)c(OC)c3)n2)cc(OC)c1OC	15.8	2.08	42.2
COc1ccc(/C=C(/C(=O)NCc2cc3c([nH]c4ccccc43)c(-c3cccc(F)c3)n2)c2cc(OC)c(OC)c(OC)c2)cc1	12.6	12.9	39.5
COc1cc([C@@H]2c3cc4c(cc3[C@@H](O[C@@H]3O[C@@H]5CO[C@@H](C)O[C@H]5[C@H](O)[C@H]3O)[C@H]3COC(=O)[C@H]23)OCO4)cc(OC)c1O [ETOPOSIDE]	2.47	2.17	2.66
COc1ccc(-c2nc(CNC(=O)/C(=C/c3ccc(OC)c(OC(C)=O)c3)c3cc(OC)c(OC)c(OC)c3)cc3c2[nH]c2ccccc23)cc1	3.54	2.75	8.41
COc1cc(/C=C(/C(=O)NCc2cc3c([nH]c4ccccc43)c(-c3cccc(F)c3)n2)c2cc(OC)c(OC)c(OC)c2)ccc1O	2.44	2.55	19.1
COc1cc(/C(=C\c2ccc(Cl)cc2)C(=O)NCc2cc3c([nH]c4ccccc43)c(-c3cc(OC)c(OC)c(OC)c3)n2)cc(OC)c1OC	8.1	6.59	17.6
COc1ccc(-c2nc(CNC(=O)/C(=C/c3ccc(OC)c(O)c3)c3cc(OC)c(OC)c(OC)c3)cc3c2[nH]c2ccccc23)cc1	10.2	3.09	18
COc1cc(/C=C(/C(=O)NCc2cc3c([nH]c4ccccc43)c(-c3cccc(F)c3)n2)c2cc(OC)c(OC)c(OC)c2)cc(OC)c1OC	9.84	12.3	23.8
COc1ccc(-c2nc(CNC(=O)/C(=C/c3ccc(OC(C)=O)c(OC)c3)c3cc(OC)c(OC)c(OC)c3)cc3c2[nH]c2ccccc23)cc1	9.78	5.49	11.9
COc1cc(/C=C(/C(=O)NCc2cc3c([nH]c4ccccc43)c(-c3cccc(F)c3)n2)c2cc(OC)c(OC)c(OC)c2)cc(OC)c1	2.57	1.99	17.2
COc1ccc(/C=C(/C(=O)NCc2cc3c([nH]c4ccccc43)c(-c3cccc(F)c3)n2)c2cc(OC)c(OC)c(OC)c2)cc1OC(C)=O	2.46	3.07	13.6
COc1cc(/C=C(/C(=O)NCc2cc3c([nH]c4ccccc43)c(-c3cc(OC)c(OC)c(OC)c3)n2)c2cc(OC)c(OC)c(OC)c2)cc(OC)c1OC	15.7	10.6	36.4
CCOc1ccccc1/C=C(/C(=O)NCc1cc2c([nH]c3ccccc32)c(-c2cccc(F)c2)n1)c1cc(OC)c(OC)c(OC)c1	2.18	2.95	14
COc1cc(/C(=C\c2ccc(Cl)cc2)C(=O)NCc2cc3c([nH]c4ccccc43)c(-c3cccc(F)c3)n2)cc(OC)c1OC	8.44	22.2	31.3
COc1ccc(-c2nc(CNC(=O)/C(=C/c3ccc(O)c(OC)c3)c3cc(OC)c(OC)c(OC)c3)cc3c2[nH]c2ccccc23)cc1	2.81	1.79	6.31
COc1ccc2c(c1)[nH]c1c(C)nccc12 [HARMINE]	9.63	5.89	9.66

Structure (SMILES)	IC50 [1] [µM]	IC50 [2] [µM]	IC50 [3] [µM]
COc1ccc(/C=C(/C(=O)NCc2cc3c([nH]c4ccccc43)c(-c3cc(OC)c(OC)c(OC)c3)n2)c2cc(OC)c(OC)c(OC)c2)cc1O	7.88	7.55	23.1
COc1cc(/C=C(/C(=O)NCc2cc3c([nH]c4ccccc43)c(-c3cc(OC)c(OC)c(OC)c3)n2)c2cc(OC)c(OC)c(OC)c2)ccc1OC(C)=O	8.35	7.08	50.1
COc1ccc(/C=C(/C(=O)NCc2cc3c([nH]c4ccccc43)c(-c3cc(OC)c(OC)c(OC)c3)n2)c2cc(OC)c(OC)c(OC)c2)cc1	6.67	2.23	19.5
COc1cc(/C(=C\c2cccc(F)c2)C(=O)NCc2cc3c([nH]c4ccccc43)c(-c3cccc(F)c3)n2)cc(OC)c1OC	3.89	2.88	19.7
COc1cc(/C=C(/C(=O)NCc2cc3c([nH]c4ccccc43)c(-c3cc(OC)c(OC)c(OC)c3)n2)c2cc(OC)c(OC)c(OC)c2)cc(OC)c1	11.1	3.38	29.9
COc1ccc(-c2nc(CNC(=O)/C(=C/c3ccc(C)cc3)c3cc(OC)c(OC)c(OC)c3)cc3c2[nH]c2ccccc23)cc1	2.57	1.38	14.5
COc1ccc(-c2nc(CNC(=O)/C(=C/c3cc(OC)cc(OC)c3)c3cc(OC)c(OC)c(OC)c3)cc3c2[nH]c2ccccc23)cc1	3.09	2.76	21.7
COc1ccc(-c2nc(CNC(=O)/C(=C/c3ccc(Cl)cc3)c3cc(OC)c(OC)c(OC)c3)cc3c2[nH]c2ccccc23)cc1	13	9.65	37.5
COc1cc(/C(=C\c2ccc(C)cc2)C(=O)NCc2cc3c([nH]c4ccccc43)c(-c3cc(OC)c(OC)c(OC)c3)n2)cc(OC)c1OC	2.63	1.12	4.46
CCOc1ccccc1/C=C(/C(=O)NCc1cc2c([nH]c3ccccc32)c(-c2cc(OC)c(OC)c(OC)c2)n1)c1cc(OC)c(OC)c(OC)c1	16.1	18.4	18.2
COc1ccc(/C=C(/C(=O)NCc2cc3c([nH]c4ccccc43)c(-c3cccc(F)c3)n2)c2cc(OC)c(OC)c(OC)c2)cc1O	1.87	1.62	9.68
CCOc1ccccc1/C=C(/C(=O)NCc1cc2c([nH]c3ccccc32)c(-c2ccc(OC)cc2)n1)c1cc(OC)c(OC)c(OC)c1	10.9	11.7	16.3
COc1cc(/C(=C\c2ccc(C(F)(F)F)cc2)C(=O)NCc2cc3c([nH]c4ccccc43)c(-c3cc(OC)c(OC)c(OC)c3)n2)cc(OC)c1OC	2.04	1.11	14.7
COc1cc(/C=C(/C(=O)NCc2cc3c([nH]c4ccccc43)c(-c3cc(OC)c(OC)c(OC)c3)n2)c2cc(OC)c(OC)c(OC)c2)ccc1O	13.3	5.27	40.7
COc1cc(/C=C(/C(=O)NCc2cc3c([nH]c4ccccc43)c(-c3cccc(F)c3)n2)c2cc(OC)c(OC)c(OC)c2)ccc1OC(C)=O	11.7	14.2	26.1
COc1ccc(/C=C(/C(=O)NCc2cc3c([nH]c4ccccc43)c(-c3cc(OC)c(OC)c(OC)c3)n2)c2cc(OC)c(OC)c(OC)c2)cc1OC(C)=O	7.06	1.16	18
COc1ccc(-c2nc(CNC(=O)/C(=C/c3cccc(F)c3)c3cc(OC)c(OC)c(OC)c3)cc3c2[nH]c2ccccc23)cc1	4.07	3.54	27.6
